Data from US20100190710A1, “IL-23 RECEPTOR ANTAGONISTS AND USES THEREOF” (Valorisation HSJ, Societe en Commandite, priority 2007, published 2010).
Entries after “also recorded” stand apart in the source; their conditions may differ. Peptide text beside a SMILES is read from it.

How the values were obtained:
Format in all cases: cell-based
IL-12R = target: T1, IL-12R (Homo sapiens, UniProt P42701+Q99665); assay: IL-12-induced STAT4 phosphorylation (selectivity, Western blot); settings: even at high concentrations, i.e., 10 μM
T1 construct: endogenous in cells
Description: FIGS. 8A and 8B are a series of graphs and Western Blots showing the specificity and selectivity of IL-23R binding peptides. […] [^125I]-2305 binding was performed in phosphate buffer saline pH=7.4 on PMA-activated HL-60 cells. [^125I]-labelled and unlabelled peptide 2305 was incubated with cells for 1 hour for equilibration. Cells were then washed four times and bound radioactivity measured using a Cobra II Autogamma gamma counter (Packard). Non-activated HL-60 cells, which express little IL-23R, were used as a negative control (shown on Western Blot of IL-23 receptor). A robust increase in IL-23R expression by PMA was observed on duplicate Western blots. Peptide 2305 is easily labelled with [^125I] on its tyrosine; in absence of tyrosine (e.g., peptide 2309) [^14C]-labelled amino acids can be used. […] IL-12R is very homologous to IL-23R. Western Blots of phosphorylated STAT4 and total STAT4 were performed on cell lysates.

IL-23R = target: T2, IL-23R (Mus musculus, UniProt Q8K4B4); assay: IL-23-induced STAT3 phosphorylation in freshly isolated splenocytes (Alpha Screen SureFire p-STAT-3); settings: freshly isolated splenocytes; listed as APG-2309
T2 construct: Spleens were sterilely removed from mice, sliced, and mashed in the presence of PBS buffer; from tissue; host or cells: mouse spleen: freshly isolated splenocytes, and CD4+ cells differentiated into TH17 cells
T2 sequence (Q8K4B4 24-644): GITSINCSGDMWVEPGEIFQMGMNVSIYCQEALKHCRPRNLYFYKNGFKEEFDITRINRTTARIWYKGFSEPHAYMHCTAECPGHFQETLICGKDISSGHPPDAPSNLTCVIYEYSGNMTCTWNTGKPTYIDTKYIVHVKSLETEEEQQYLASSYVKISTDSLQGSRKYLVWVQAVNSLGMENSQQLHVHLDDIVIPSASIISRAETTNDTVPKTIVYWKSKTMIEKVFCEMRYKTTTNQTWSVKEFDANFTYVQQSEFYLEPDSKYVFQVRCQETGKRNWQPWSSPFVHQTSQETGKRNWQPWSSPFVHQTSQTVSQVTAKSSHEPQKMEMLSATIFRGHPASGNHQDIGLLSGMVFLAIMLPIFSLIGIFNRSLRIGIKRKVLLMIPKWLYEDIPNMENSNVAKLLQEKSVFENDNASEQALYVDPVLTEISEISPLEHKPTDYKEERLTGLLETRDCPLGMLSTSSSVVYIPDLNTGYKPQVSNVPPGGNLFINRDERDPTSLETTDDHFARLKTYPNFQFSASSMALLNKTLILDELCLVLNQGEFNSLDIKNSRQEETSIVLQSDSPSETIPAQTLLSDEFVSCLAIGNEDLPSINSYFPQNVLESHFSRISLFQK
Description: Spleens were sterilely removed from mice, sliced, and mashed in the presence of PBS buffer, 2% fetal bovine serum, and 1 mM EDTA. Tissue was allowed to pass through a number 26 syringe and was filtered through a 70 μm mesh nylon strainer. Cells were cultured with non-essential amino acids, 2 μg/ml of anti-CD3, and 20 μg/ml of anti-CD-28 as survival and differentiation factors.
Splenocytes or TH17 cells were distributed in 384-well plates (Optiplate; Perkin Elmer) (100,000 cells/well). Cells were pre-incubated for 30 minutes with different concentrations of peptide APG-2305 or APG-2309 and incubated with 25 ng/ml of IL-23 (R&D systems) for 10 minutes. STAT3 phosphorylation was determined with the kit Alpha Screen SureFire p-STAT-3 assay from Perkin Elmer according to manufacturer's instructions. Briefly, after incubation with IL-23, cells were lysed and contacted with (1) protein A acceptor conjugated beads coated with anti-p-STAT-3 (Tyr705) and (2) streptavidin-coated donor beads. The resulting signal was measured with a Perkin Elmer Wallac En vision 2104 Multilabel reader. Graphs were generated using GraphPrism 4 software.
The effect of peptide APG-2305 and APG-2309 derivatives on IL-23-induced STAT3 phosphorylation was determined using CD-1 mice freshly isolated splenocytes and the Alpha Screen p-STAT3 assay (see above materials and methods) (FIGS. 6 and 7). […] As described herein, based on the efficacy of derivatives, we have identified regions in APG-2305 and APG-2309 peptides that are important for their ability to affect IL-23R activity.

IL-23 receptor = target: T3, IL-23 receptor (Homo sapiens, UniProt Q5VWK5); assay: IL-23-induced TNFα production in PMA-activated HL-60 monocytes (ELISA); parameters: endogenous in cells; settings: IL-23 10 ng/ml, ELISA 24 hours after stimulation, read-out: Emax, inhibition of IL-23-induced TNF formation
T3 sequence (Q5VWK5 24-629): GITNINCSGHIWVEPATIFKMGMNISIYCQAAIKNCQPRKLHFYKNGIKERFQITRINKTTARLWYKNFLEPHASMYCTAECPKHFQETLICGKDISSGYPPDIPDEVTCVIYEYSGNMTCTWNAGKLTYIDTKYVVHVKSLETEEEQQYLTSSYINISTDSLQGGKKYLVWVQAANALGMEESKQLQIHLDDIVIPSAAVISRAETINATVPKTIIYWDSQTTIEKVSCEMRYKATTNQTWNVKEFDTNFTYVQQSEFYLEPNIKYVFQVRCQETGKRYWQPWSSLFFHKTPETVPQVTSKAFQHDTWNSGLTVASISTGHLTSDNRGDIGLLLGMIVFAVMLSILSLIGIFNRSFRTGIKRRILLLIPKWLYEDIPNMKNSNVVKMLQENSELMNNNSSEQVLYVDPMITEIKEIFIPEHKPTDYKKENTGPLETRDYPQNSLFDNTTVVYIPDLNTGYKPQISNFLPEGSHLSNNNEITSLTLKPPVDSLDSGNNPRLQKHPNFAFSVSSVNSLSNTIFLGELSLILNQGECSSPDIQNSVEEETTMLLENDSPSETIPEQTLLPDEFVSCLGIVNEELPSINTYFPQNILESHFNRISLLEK
Description: FIGS. 3A and 3B are graphs showing inhibition of IL-23-induced STAT3 phosphorylation and TNFα generation. […] Western Blot analysis was performed on cell lysates, and immunoblot densitometry was measured using ImagePro4+ software. […] TNFα production was quantified by ELISA 24 hours after stimulation with IL-23 using the Quantikine ELISA Kit (R&D systems).
D-peptides 2303, 2305, 2307 and 2309 (1 μM) inhibit IL-23-induced STAT3 phosphorylation in phorbol 12-myristate 13-acetate (PMA)-activated human monocytes (HL-60) (FIG. 2).

T1 sequence (Q99665 24-862, other chains not shown): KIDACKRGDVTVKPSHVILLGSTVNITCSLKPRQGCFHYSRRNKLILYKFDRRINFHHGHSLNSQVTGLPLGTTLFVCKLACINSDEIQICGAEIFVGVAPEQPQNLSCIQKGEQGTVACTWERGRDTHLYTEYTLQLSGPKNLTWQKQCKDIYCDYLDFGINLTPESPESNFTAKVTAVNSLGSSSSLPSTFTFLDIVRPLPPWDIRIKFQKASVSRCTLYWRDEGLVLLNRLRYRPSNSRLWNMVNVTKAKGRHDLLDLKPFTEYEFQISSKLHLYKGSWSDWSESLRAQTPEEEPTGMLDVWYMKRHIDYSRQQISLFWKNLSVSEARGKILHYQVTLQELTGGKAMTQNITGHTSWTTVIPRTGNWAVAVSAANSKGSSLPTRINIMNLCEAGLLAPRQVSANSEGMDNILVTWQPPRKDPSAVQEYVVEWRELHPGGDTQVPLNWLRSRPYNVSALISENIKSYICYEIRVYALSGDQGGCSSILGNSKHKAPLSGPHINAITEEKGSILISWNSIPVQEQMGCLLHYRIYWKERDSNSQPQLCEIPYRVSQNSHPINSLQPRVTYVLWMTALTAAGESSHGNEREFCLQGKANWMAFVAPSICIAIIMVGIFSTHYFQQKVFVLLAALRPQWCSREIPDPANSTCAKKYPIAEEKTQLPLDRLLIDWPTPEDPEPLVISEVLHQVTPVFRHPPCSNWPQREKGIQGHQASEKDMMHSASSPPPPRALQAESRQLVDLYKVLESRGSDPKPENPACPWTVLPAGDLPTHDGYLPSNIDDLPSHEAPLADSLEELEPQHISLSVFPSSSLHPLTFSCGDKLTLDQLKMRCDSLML

effect on IL-23-induced STAT3 phosphorylation (IL-23R): inhibit; also recorded: showed efficacy
Emax (IL-23 receptor): ~80%
Compound: CSCC[C@@H](N)C(=O)N[C@H](CCC(=O)O)C(=O)N[C@H](CCC(=O)O)C(=O)N[C@H](CO)C(=O)N[C@H](CCCCN)C(=O)N[C@H](CCC(N)=O)C(=O)N[C@H](CC(C)C)C(=O)N[C@H](CCC(N)=O)C(=O)N[C@H](CC(C)C)C(=O)O [Peptide 2309, MEESKQLQL] (HELM PEPTIDE1{[dM].[dE].[dE].[dS].[dK].[dQ].[dL].[dQ].[dL]}$$$$V2.0; N-terminus and C-terminus assumed)
effect on IL-12-induced STAT4 phosphorylation (IL-12R): does not inhibit; also recorded: inability
